Legend:
[1] = test system: Leishmania amazonensis; experiment: Antileishmanial activity against ABC transporter PRP1 gene expressing Leishmania amazonensis MHOM/BR/1973/MM2269 promastigotes infected in human THP1 cells assessed as fold resistance by luciferase based assay relative to control; format: functional, THP-1
[2] = test system: Leishmania infantum; experiment: Antileishmanial activity against ABC transporter PRP1 gene expressing Leishmania infantum MHOM/MA/67/ITMAP-263 axenic amastigotes assessed as fold resistance relative to control
[3] = test system: Leishmania infantum; experiment: Antileishmanial activity against wild-type Leishmania infantum MHOM/MA/67/ITMAP-263 promastigotes infected in human THP1 cells by luciferase based assay; format: functional, organism-based; settings: THP-1
[4] = test system: Leishmania major; experiment: Antileishmanial activity against wild-type Leishmania major LV39 promastigotes infected in human THP1 cells by luciferase based assay; format: functional, organism-based; settings: LV39, THP-1
[5] = test system: Leishmania major; experiment: Antileishmanial activity against ABC transporter PRP1 gene expressing Leishmania major LV39 promastigotes infected in human THP1 cells assessed as fold resistance by luciferase based assay relative to control; format: functional, THP-1
[6] = test system: Leishmania amazonensis; experiment: Antileishmanial activity against wild-type Leishmania amazonensis MHOM/BR/1973/MM2269 promastigotes infected in human THP1 cells by luciferase based assay; format: functional, organism-based; settings: THP-1

Structure (SMILES) | fold change (FC) [1] | fold change (FC) [2] | IC50 [3] | IC50 [4] | fold change (FC) [5] | IC50 [6]
N=C(N)c1ccc(OCCCCCOc2ccc(C(=N)N)cc2)cc1 [PENTAMIDINE] | 3 | 3 | 10 µg/mL | 5.1 µg/mL | 3 | 6.8 µg/mL
COc1ccc(CCN(C)CCCC(C#N)(c2ccc(OC)c(OC)c2)C(C)C)cc1OC (centres undefined) [VERAPAMIL] |  |  | 43.2 µM | 40.3 µM |  | 19.1 µM
